The values that follow come from article PMC4912613, “A broad analysis of resistance development in the malaria parasite” (Nature Communications, 2016).

The pEC50 is −log10 of the EC50, conventionally taken in molar units. By EC50 is commonly meant the concentration that produces a half-maximal response.

pEC50: −log10 of the molar value.

In data set [1] the test system is P. berghei exoerythrocytic forms. Description: Liver-stage P. berghei hepatocyte invasion and development assay (luminescence, HepG2). The class given is cell-based, Plasmodium berghei. The following applies: for pEC50: Plasmodium berghei, HepG2, 48 h, P. berghei sporozoites, read-out: Liver Stage EC50; for EC50 fold shift compared to asexual stage: Liver Stage EC50: liver stage EC50 / 3D7 EC50. The method, boiled down: (§1)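 Duplicate 12-point dose curves, starting at 5 μM or 50 μM, gave EC50s for both parasite and host toxicity. Compound was added to human HepG2 hepatocytes 2 h before infection with freshly dissected P. berghei sporozoites. Surviving liver-stage forms were quantified by luminescence after 48 h.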

For a further data set, the system named is HepG2. Description: Hepatocyte toxicity. Particulars: for Hepatocyte Toxicity: HepG2; for EC50 fold shift compared to asexual stage: Hepatocyte Toxicity: hepatocyte toxicity / 3D7 EC50; for Liver Stage / Hepatocyte Toxicity: toxicity fold shift for the liver stage (hepatocyte toxicity vs liver stage EC50). The class given is cell-based, human. Summed up: as §1

Data set [2] concerns ATQ-R4 (cytb M133I and L144S, parent 3D7). In words: Cross-resistance EC50 assay, ATQ-R4. It is filed as cell-based, Plasmodium falciparum. Particulars: Plasmodium falciparum, 3D7; SYBR green 72 hour assay; asynchronized parasites; 96-well or 1536-well format; ATQ-R4. An excerpt: (§2) To evaluate potential overlapping activity against known antimalarial drug targets, we performed dose-response studies with each compound against our assembled set of drug-resistant lines and their corresponding parents, in an asexual blood stage proliferation assay (Table 1). Comparisons were made to the drug-sensitive strain 3D7 when a parent was unavailable (TM90C2A, W2 and Dd2). As laboratories conducted EC50 assays with different strains and protocols, all comparisons were made between assays from the same laboratory and under the same assay conditions. Compounds displaying >5-fold EC50 shifts relative to the parent or sensitive strain were flagged as having potentially non-novel targets. Average fold shifts per strain ranged from 0.82 to 2.34, with a median of 1.23 indicating there was not common resistance to any one resistant clone. No resistance patterns were observed when classifying the compounds based on chemical structure, but this was not surprising given the diversity of compounds chosen. On the other hand, given that these confirmed compounds were derived from larger unconfirmed hit lists to which some filtration criteria may have been applied (for example, elimination of obvious dihydrofolate reductase inhibitors[32]), some[10][11][12][13] pre-existing bias may exist in the set. […]
(§3) Alternatively, a SYBR Green-based proliferation approach was used for the 72-h assay, as previously described. Briefly, a culture of either synchronized or asynchronous parasitized RBCs (0.3% parasitemia and 4% haematocrit) in screening medium (identical to supplemented medium above except no serum was added) was exposed to serial drug dilutions. Plates were incubated at 37 °C and gassed with 93% N2, 4% CO2 and 3% O2 for 72 h. Following incubation, 10 × SYBR Green I (Invitrogen; supplied in 10,000 × concentration) in lysis buffer ([…], 5 mM EDTA, 0.16% Saponin wt per vol and 1.6% Triton X vol per vol) was added to the wells and the plates were incubated overnight at room temperature before plate reading. EC50 assays were repeated three times, taking the average EC50 value from each assay set, and removing any outliers using a single iteration of Grubbs' test, eliminating values with z-scores above the critical z-value (α=0.05). The raw EC50 values for synchronized parasites assayed in a 384-well format are listed in Supplementary Data 4. The raw EC50 values for asynchronous parasites assayed in a 96 or 1536-well format are listed in Supplementary Data 5.
(§4) EC50 values for each strain were compared with those of the corresponding parent strain to determine fold-shift changes and identify resistance. To minimize the cause variance between assays, all comparisons were conducted between strains assayed under identical conditions. A one-way ANOVA followed by a Dunnet's post-test was conducted in GraphPad Prism to identify significant changes between the parent and resistant strain.

The subject of the next data set is hsp90 (D88Y, parent Dd2). In words: Cross-resistance EC50 assay, hsp90. The class given is cell-based. The following applies: Plasmodium falciparum, SYBR green 72 hour assay, synchronized parasites, 384-well format.
From the text: as §2, §3, §4

As to `CC(C)(C)OC(=O)N1CCN(c2ccccc2NC(=O)c2cccc(C(F)(F)F)c2Oc2ccc(F)cc2)CC1` [MMV030666], in data set [1], the pEC50 was 6.21 and the “EC50 fold shift compared to asexual stage: Liver Stage EC50” value (shortened to “EC50 fold shift … Liver Stage EC50”) came out at 1.26. In addition, in the data set with HepG2, the “Hepatocyte Toxicity” value was 10.17 µM, the “EC50 fold shift compared to asexual stage: Hepatocyte Toxicity” value (from here on “EC50 fold shift … Hepatocyte Toxicity”) is reported as 20.93 and the “Liver Stage / Hepatocyte Toxicity” value is 16.60. The EC50 in data set [2] turned out to be 0.448 µM. For the same compound, the pEC50 with hsp90 (D88Y, parent Dd2) (strain HSP90 (Dd2 parent)) is 6.49.
With `CC(NCc1ccccc1)c1cc(Cl)ccc1O` (stereo not drawn) [MMV665789], in data set [1], the pEC50 is under 5.30 and the “EC50 fold shift … Liver Stage EC50” value was over 4. In the data set with HepG2, the “Hepatocyte Toxicity” value was over 5 µM and the “EC50 fold shift … Hepatocyte Toxicity” value was over 4. The EC50 in data set [2] came to 0.41 µM. The pEC50 in the data set with hsp90 (D88Y, parent Dd2) (strain HSP90 (Dd2 parent)) is 6.25.
On to `FC(F)(F)c1cccc(Nc2nc3ccccc3nc2Nc2cccc(C(F)(F)F)c2)c1` [MMV665794], for which the pEC50 in data set [1] was 6.43. Also, in the data set on HepG2, the “Hepatocyte Toxicity” value was 1.374 µM and the “Liver Stage / Hepatocyte Toxicity” value was 3.67. Further, the EC50 in data set [2] is 0.434 µM. Besides, the pEC50 in the data set on hsp90 (D88Y, parent Dd2) (strain HSP90 (Dd2 parent)) was 6.85.
For `O=C(Nc1ccc(Cl)c(Cl)c1)Nc1ccc(Cl)c(Cl)c1` [MMV665852] the same measures were 6.46, 2.594 µM, 7.56, 2.89 µM and 6.05.
For `OC(CNC1CCCCC1)Cn1c2ccc(I)cc2c2cc(I)ccc21` (stereo not drawn) [MMV665882], in data set [1], the negative-log EC50 (pEC50) is 5.51 and the “EC50 fold shift … Liver Stage EC50” value is reported as 42.02. Besides, in the data set with HepG2, the “Hepatocyte Toxicity” value was 13.25 µM, the “EC50 fold shift … Hepatocyte Toxicity” value is reported as 182.26 and the “Liver Stage / Hepatocyte Toxicity” value worked out at 4.34. Besides, the EC50 in data set [2] came out at 0.026 µM. The pEC50 with hsp90 (D88Y, parent Dd2) (strain HSP90 (Dd2 parent)) was 7.60.
Consider `O=C(Nc1ccccc1O)c1ccc(Oc2cccc(C(=O)Nc3ccccc3O)c2)cc1` [MMV665888], for which, in data set [1], the pEC50 was 6.19 and the “EC50 fold shift … Liver Stage EC50” value was 0.54. In the data set with HepG2, the “Hepatocyte Toxicity” value turned out to be 4.362 µM, the “EC50 fold shift … Hepatocyte Toxicity” value was determined as 3.60 and the “Liver Stage / Hepatocyte Toxicity” value turned out to be 6.73. For the same compound, in data set [2], the EC50 came out at 1.05 µM. The pEC50 in the data set with hsp90 (D88Y, parent Dd2) (strain HSP90 (Dd2 parent)) was 6.07.
`COc1ccc(C(=O)C2CC2c2ccc(Cl)cc2)cc1` (stereo not drawn) [MMV665924]: in data set [1], the pEC50 was under 5.30 and the “EC50 fold shift … Liver Stage EC50” value is listed as over 6. For the same compound, in the data set with HepG2, the “Hepatocyte Toxicity” value was over 5 µM and the “EC50 fold shift … Hepatocyte Toxicity” value was over 6. Moreover, the EC50 in data set [2] was 3.41 µM. Further, the pEC50 with hsp90 (D88Y, parent Dd2) (strain HSP90 (Dd2 parent)) is 5.77.
Take `CCC(C)NCC(O)(c1ccc(Cl)cc1)c1ccc(Cl)cc1` (stereo not drawn) [MMV665928]: in data set [1], the pEC50 was under 5.30 and the “EC50 fold shift … Liver Stage EC50” value is reported as over 10. Further, in the data set with HepG2, the “Hepatocyte Toxicity” value was over 5 µM and the “EC50 fold shift … Hepatocyte Toxicity” value is over 10. Besides, the EC50 in data set [2] came out at 0.09 µM. Also, the pEC50 in the data set with hsp90 (D88Y, parent Dd2) (strain HSP90 (Dd2 parent)) is 6.30.
As for `O=C(Nc1ccsc1C(=O)NC1CCCCC1)c1ccc(F)cc1` [MMV665939], the negative logarithm of the EC50 (pEC50) is under 5.30 in data set [1] and 5.66 in the data set on hsp90 (D88Y, parent Dd2) (strain HSP90 (Dd2 parent)). Moreover, the “Hepatocyte Toxicity” value with HepG2 was over 5 µM. The 50% effective concentration (EC50) in data set [2] turned out to be 3.73 µM.
For the compound `Nc1ccc(-c2nc3cc(Cc4ccc5[nH]c(-c6ccc(N)cc6)nc5c4)ccc3[nH]2)cc1` [MMV665943], in data set [1], the pEC50 is 5.23 and the “EC50 fold shift … Liver Stage EC50” value amounted to 18.84. Further, in the data set with HepG2, the “Hepatocyte Toxicity” value worked out at 14.29 µM, the “EC50 fold shift … Hepatocyte Toxicity” value is on record as 45.22 and the “Liver Stage / Hepatocyte Toxicity” value came to 2.40. Moreover, the EC50 in data set [2] turned out to be 0.045 µM. For the same compound, the pEC50 in the data set on hsp90 (D88Y, parent Dd2) (strain HSP90 (Dd2 parent)) was 6.37.
For the compound `O=C(NC(c1ccccc1)c1ccc2cccnc2c1O)c1ccccc1` (stereo not drawn) [MMV666080], in data set [1], the pEC50 was 6.33 and the “EC50 fold shift … Liver Stage EC50” value turned out to be 0.55. In the data set with HepG2, the “Hepatocyte Toxicity” value is 1.309 µM, the “EC50 fold shift … Hepatocyte Toxicity” value is recorded as 1.55 and the “Liver Stage / Hepatocyte Toxicity” value worked out at 2.82. In addition, the EC50 in data set [2] was found to be 0.746 µM. Further, the negative logarithm of the EC50 (pEC50) in the data set with hsp90 (D88Y, parent Dd2) (strain HSP90 (Dd2 parent)) is 6.19.
As for `COc1cc(C(=O)ON=C(N)Cc2cccc3ccccc23)cc(OC)c1OC` [MMV666687], in data set [1], the pEC50 is 4.68. Besides, in the data set on HepG2, the “Hepatocyte Toxicity” value came out at 31.52 µM and the “Liver Stage / Hepatocyte Toxicity” value was 1.50. Also, the EC50 in data set [2] is 0.784 µM. The pEC50 in the data set with hsp90 (D88Y, parent Dd2) (strain HSP90 (Dd2 parent)) is 6.55.
For `c1cncc(-c2cc(N3CCC(CN4CCOCC4)CC3)nc(-c3ccncc3)n2)c1` [MMV668399] the same measures were 5.15, over 50 µM, over 7, 0.332 µM and 7.05.
As for `CN(C)CCCNCc1ccc(-c2ccc(Cl)c(Cl)c2)o1` [MMV673964], in data set [1], the pEC50 was 5.05 and the “EC50 fold shift … Liver Stage EC50” value turned out to be 14.81. Further, in the data set on HepG2, the “Hepatocyte Toxicity” value worked out at 19.83 µM, the “EC50 fold shift … Hepatocyte Toxicity” value came out at 32.67 and the “Liver Stage / Hepatocyte Toxicity” value is given as 2.21. In data set [2], the concentration for a half-maximal effect (EC50) came to 0.163 µM. Moreover, the pEC50 in the data set on hsp90 (D88Y, parent Dd2) (DD2, HSP90 strain) is 6.49.
